Measurements as given in US20230212519A1, “METHOD FOR PURIFYING CARDIOMYOCYTES” (ORIZURU THERAPEUTICS, INC., priority 2020, published 2023).

Test system: embryoid body containing mixture of cardiomyocytes and non-cardiomyocytes
Test: Sarcomeric α-actinin-positive cell rate by flow cytometer after treatment of embryoid body with compound
Type: cell-based, human
Conditions: Experimental Example 4; clinical iPS cell line; embryoid body treated from day 20 for 4 days; FK-228 1-30 nM, Entinostat 0.1-10 μM
Protocol: On day 20, the embryoid body was recovered in a centrifugal tube, stood until a sediment of the embryoid body was formed, and the supernatant was aspirated while avoiding sucking the embryoid body. The medium was changed with a fresh 13 medium (same medium for myocardial differentiation as in Experimental Example 1), and divided into a 6-well plate with a medium amount of 3 mL/well so that an equal amount of the embryoid body would be placed in each well. Thereafter, an evaluation compound (1 nM to 10 μM) described in Table 1 or DMSO (0.1%) was added. […] It was centrifuged at 500 g for 1 min. The supernatant was removed, a solution of 500 μL of IMDM added with DNase 10 μg/mL and Liberase 100 μg/mL was added per one tube, and the mixture was stood at 37° C. under general oxygen conditions for 1 hr. […] The fixed cells were stained with an anti-sarcomeric α-actinin antibody, and the expression of sarcomeric α-actinin was analyzed with a flow cytometer. […]
On day 20, the embryoid body was recovered in a centrifugal tube, stood until a sediment of the embryoid body was formed, and the supernatant was aspirated while avoiding sucking the embryoid body. […] The fixed cells were stained with an anti-sarcomeric α-actinin antibody, and the sarcomeric α-actinin-positive cell rate was measured by analyzing the expression of sarcomeric α-actinin with a flow cytometer. […]

## Nc1ccccc1NC(=O)c1ccc(CNC(=O)OCc2cccnc2)cc1 [Entinostat]
  cardiomyocyte rate (sarcomeric α-actinin-positive cell rate): improved
